From patent US10059701B2 (Merck Patent GmbH, priority 2015, dated 2018)
pIC50: −log10 of the molar value.

Assays:
[1] = biological target: T1, IRAK1 (Homo sapiens, UniProt P51617); assay: IRAK1 enzymatic assay (ADP-Glo luminescence); type: biochemical; details: purified human recombinant His-TEV-IRAK1 (194-712)
T1 construct: His-TEV-IRAK1 (194-712); His (N); TEV cleavage site (N)
Method: IRAK1 is a human purified recombinant enzyme (His-TEV-IRAK1 (194-712))
In this assay, IRAK1 hydrolyses ATP and autophosphorylates. Measurement of IRAK-1 inhibition is performed in 384-well format based on luminescence assay (ADP-Glo™ Kinase Assay from Promega). Purified human recombinant IRAK1 (0.3 μg/ml) and serial diluted compounds in DMSO (range of concentration from 10 μM to 0.5 nM) or controls (1% DMSO) are incubated for 15 minutes at RT in assay buffer containing 50 mM Hepes pH 7.0, Fatty acid-free BSA 0.1%, Dithiothreitol (DTT) 2 mM, MgCl2 10 mM, EGTA 0.5 mM, Triton X-100 0.01%. The kinase reaction is then initiated by the addition of ATP […] After 2 hours of incubation at RT, the reaction is stopped and the unconsumed ATP depleted by the addition of ADP-Glo™ Reagent according to supplier instructions. After 40 minutes of incubation at RT, the Kinase Detection Reagent is then added to the assay plate according to supplier instructions. After 20 minutes of incubation at RT, the luminescence signal is measured with a luminometer (PerkinElmer Envision or equivalent reader).

[2] = biological target: T2, IRAK4 (Homo sapiens, UniProt Q9NWZ3); assay: IRAK4 enzymatic assay (ADP-Glo luminescence); type: biochemical; details: purified human recombinant His-TEV-IRAK4 (1-460), ATP 2 μM
T2 construct: His-TEV-IRAK4 (1-460); His (N); TEV cleavage site (N)
T2 sequence (Q9NWZ3 1-460): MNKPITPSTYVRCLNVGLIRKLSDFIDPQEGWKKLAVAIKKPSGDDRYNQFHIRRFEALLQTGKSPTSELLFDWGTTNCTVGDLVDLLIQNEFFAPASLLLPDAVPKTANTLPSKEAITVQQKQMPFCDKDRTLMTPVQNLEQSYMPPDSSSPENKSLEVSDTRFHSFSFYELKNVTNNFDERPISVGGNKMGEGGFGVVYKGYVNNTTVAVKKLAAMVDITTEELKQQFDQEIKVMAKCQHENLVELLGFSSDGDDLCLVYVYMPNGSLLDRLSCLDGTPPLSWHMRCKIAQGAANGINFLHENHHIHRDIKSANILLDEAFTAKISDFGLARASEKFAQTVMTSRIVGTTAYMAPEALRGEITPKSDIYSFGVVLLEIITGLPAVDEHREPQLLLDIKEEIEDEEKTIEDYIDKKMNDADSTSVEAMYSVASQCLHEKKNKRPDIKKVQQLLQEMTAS
Method: IRAK4 is a human purified recombinant enzyme (His-TEV-IRAK4 (1-460)).
In this assay, IRAK4 hydrolyses ATP, autophosphorylates and phosphorylates a Serine/Threonine generic peptidic substrate (STK: 61ST1BLC from CisBio International). Measurement of IRAK-4 inhibition is performed in 384-well format based on a luminescence assay (ADP-Glo™ Kinase Assay from Promega). Purified human recombinant IRAK4 (0.3 μg/ml) and serial diluted compounds in DMSO (range of concentration from 10 μM to 0.5 nM) or controls (1% DMSO) are incubated for 15 minutes at RT in assay buffer containing 50 mM Hepes pH 7.0, Fatty acid-free BSA 0.1%, Dithiothreitol (DTT) 2 mM, MgCl2 10 mM, EGTA 0.5 mM, Triton X-100 0.01%, MnCl2 5 mM. The kinase reaction is then initiated by the addition of ATP (2 μM) and the peptidic substrate STK1-biotin peptide (300 nM). After 2 hours of incubation at RT, the reaction is stopped and the unconsumed ATP depleted by the addition of ADP-Glo™ Reagent according to supplier instructions. After 40 minutes of incubation at RT, the Kinase Detection Reagent is then added to the assay plate according to supplier instructions. After 20 minutes of incubation at RT, the luminescence signal is measured with a plate-reading luminometer (PerkinElmer Envision or equivalent reader).

T1 sequence (P51617 194-712): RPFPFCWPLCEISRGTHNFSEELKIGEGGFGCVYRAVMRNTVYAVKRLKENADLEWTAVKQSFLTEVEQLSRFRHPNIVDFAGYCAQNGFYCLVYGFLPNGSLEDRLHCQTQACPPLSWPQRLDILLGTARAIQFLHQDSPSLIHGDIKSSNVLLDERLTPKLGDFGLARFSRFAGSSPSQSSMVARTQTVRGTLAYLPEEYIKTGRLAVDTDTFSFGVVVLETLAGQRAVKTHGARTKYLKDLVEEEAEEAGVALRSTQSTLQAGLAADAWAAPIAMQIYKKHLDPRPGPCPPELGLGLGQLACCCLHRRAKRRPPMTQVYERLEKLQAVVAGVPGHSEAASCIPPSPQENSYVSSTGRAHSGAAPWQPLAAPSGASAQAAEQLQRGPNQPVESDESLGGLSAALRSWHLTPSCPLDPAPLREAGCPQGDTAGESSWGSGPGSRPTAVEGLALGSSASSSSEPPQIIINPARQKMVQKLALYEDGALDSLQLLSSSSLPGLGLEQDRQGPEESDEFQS

Q: With `N#Cc1cccc(C(=O)/N=c2\[nH]c3cc(N4CCOCC4=O)ccc3n2[C@H]2CC[C@H](O)CC2)c1` [Compound 27, trans-(E)-3-cyano-N-(1-(4-hydroxycyclohexyl)-5-(3-oxomorpholino)-1H-benzo[d]imidazol-2(3H)-ylidene)benzamide] as the compound, how does the pIC50 [1] read?
A: Its pIC50 is no less than 7.00.

Q: What about the pIC50 [2] of the same compound?
A: Its pIC50 is no less than 7.00.

Q: What does the source list for `O=C(/N=c1\[nH]c2cc(N3CCOCC3=O)ccc2n1[C@H]1CC[C@H](O)CC1)c1cccc(C(F)F)c1` [Compound 28, trans-(E)-3-(difluoromethyl)-N-(1-(4-hydroxycyclohexyl)-5-(3-oxomorpholino)-1H-benzo[d]imidazol-2(3H)-ylidene)benzamide]?
A: pIC50 [1]: ≥ 7.00; pIC50 [2]: ≥ 7.00

Q: How did the pIC50 [1] turn out when `O=C(/N=c1\[nH]c2cc(N3CCCOC3=O)ccc2n1CCCO)c1cccc(C(F)F)c1` [Compound 29, (E)-3-(difluoromethyl)-N-(1-(3-hydroxypropyl)-5-(2-oxo-1,3-oxazinan-3-yl)-1H-benzo[d]imidazol-2(3H)-ylidene)benzamide] was run?
A: The pIC50 was no less than 7.00.

Q: What about the pIC50 [2] of the same compound?
A: Its pIC50 is no less than 7.00.

Q: Which results are given for `O=C(/N=c1\[nH]c2cc(N3CCOCC3=O)ccc2n1CCCO)c1ccccc1` [Compound 30, (E)-N-(1-(3-hydroxypropyl)-5-(3-oxomorpholino)-1H-benzo[d]imidazol-2(3H)-ylidene)benzamide]?
A: pIC50 [1]: 6.00 to 7.00; pIC50 [2]: 6.00 to 7.00

Q: `CS(=O)(=O)c1cccc(C(=O)/N=c2\[nH]c3cc(N4CCOCC4=O)ccc3n2[C@H]2CC[C@H](O)CC2)c1` [Compound 31, trans-(E)-N-(1-(4-hydroxycyclohexyl)-5-(3-oxomorpholino)-1H-benzo[d]imidazol-2(3H)-ylidene)-3-(methylsulfonyl)benzamide] was tested. Which pIC50 [1] did it give?
A: The pIC50 was no less than 7.00.

Q: And the pIC50 [2]?
A: Its pIC50 is no less than 7.00.

Q: Which results are given for `O=C(/N=c1\[nH]c2cc(N3CCOCC3=O)ccc2n1[C@H]1CC[C@H](O)CC1)c1cccc(C(F)(F)F)c1` [Compound 32, trans-(E)-N-(1-(4-hydroxycyclohexyl)-5-(3-oxomorpholino)-1H-benzo[d]imidazol-2(3H)-ylidene)-3-(trifluoromethyl)benzamide]?
A: pIC50 [1]: 6.00 to 7.00; pIC50 [2]: ≥ 7.00

Q: What does the source list for `O=C(/N=c1\[nH]c2cc(N3CCCOC3=O)ccc2n1CCCO)c1cccc(C(F)(F)F)c1` [Compound 33, (E)-N-(1-(3-hydroxypropyl)-5-(2-oxo-1,3-oxazinan-3-yl)-1H-benzo[d]imidazol-2(3H)-ylidene)-3-(trifluoromethyl)benzamide]?
A: pIC50 [1]: ≥ 7.00; pIC50 [2]: ≥ 7.00

Q: With `NC(=O)/C=C/c1cccc(C(=O)/N=c2\[nH]c3cc(N4CCOCC4=O)ccc3n2CCCO)c1` [Compound 34, (E)-3-((E)-3-amino-3-oxoprop-1-en-1-yl)-N-(1-(3-hydroxypropyl)-5-(3-oxomorpholino)-1H-benzo[d]imidazol-2(3H)-ylidene)benzamide] as the compound, how does the pIC50 [1] read?
A: Its pIC50 is no less than 7.00.

Q: And the pIC50 [2]?
A: The pIC50 was no less than 7.00.

Q: How did the pIC50 [1] turn out when `O=C(/N=c1\[nH]c2cc(N3CCOCC3=O)ccc2n1CCCO)c1cccc(F)c1` [Compound 35, (E)-3-fluoro-N-(1-(3-hydroxypropyl)-5-(3-oxomorpholino)-1H-benzo[d]imidazol-2(3H)-ylidene)benzamide] was run?
A: Its pIC50 is 6.00 to 7.00.

Q: And the pIC50 [2]?
A: The pIC50 was no less than 7.00.

Q: `O=C(/N=c1\[nH]c2cc(N3CCOCC3=O)ccc2n1CCCO)c1cccc(C(=O)N2CCOCC2)c1` [Compound 36, (E)-N-(1-(3-hydroxypropyl)-5-(3-oxomorpholino)-1H-benzo[d]imidazol-2(3H)-ylidene)-3-(morpholine-4-carbonyl)benzamide] was tested. Which pIC50 [1] did it give?
A: Its pIC50 is 6.00 to 7.00.

Q: And the pIC50 [2]?
A: The pIC50 was less than 6.00.

Q: `O=C(/N=c1\[nH]c2cc(N3CCOCC3=O)ccc2n1CCCO)c1cccc(Br)c1` [Compound 37, (E)-3-bromo-N-(1-(3-hydroxypropyl)-5-(3-oxomorpholino)-1H-benzo[d]imidazol-2(3H)-ylidene)benzamide] was tested. Which pIC50 [1] did it give?
A: The pIC50 was 6.00 to 7.00.

Q: And the pIC50 [2]?
A: The pIC50 was no less than 7.00.

Q: How did the pIC50 [1] turn out when `COc1ccc(C(=O)/N=c2\[nH]c3cc(N4CCOCC4=O)ccc3n2CCCO)cc1C#N` [Compound 38, (E)-3-cyano-N-(1-(3-hydroxypropyl)-5-(3-oxomorpholino)-1H-benzo[d]imidazol-2(3H)-ylidene)-4-methoxybenzamide] was run?
A: The pIC50 was less than 6.00.

Q: And the pIC50 [2]?
A: The pIC50 was less than 6.00.

Q: With `O=C(/N=c1\[nH]c2cc(N3CCOCC3=O)ccc2n1C1(CO)CCCCC1)c1cccc(C(F)(F)F)c1` [Compound 39, (E)-N-(1-(1-(hydroxymethyl)cyclohexyl)-5-(3-oxomorpholino)-1H-benzo[d]imidazol-2(3H)-ylidene)-3-(trifluoromethyl)benzamide] as the compound, how does the pIC50 [1] read?
A: Its pIC50 is less than 6.00.

Q: What about the pIC50 [2] of the same compound?
A: The pIC50 was less than 6.00.

Q: Which results are given for `COc1cc2c(cc1N1CCOCC1=O)[nH]/c(=N\C(=O)c1cccc(C(F)F)c1)n2[C@H](C)CCO` [Compound 40, (R,E)-3-(difluoromethyl)-N-(1-(4-hydroxybutan-2-yl)-6-methoxy-5-(3-oxomorpholino)-1H-benzo[d]imidazol-2(3H)-ylidene)benzamide]?
A: pIC50 [1]: ≥ 7.00; pIC50 [2]: ≥ 7.00

Q: `C[C@H](CCO)n1/c(=N/C(=O)c2cccc(C#N)c2)[nH]c2cc(N3CCCOC3=O)ccc21` [Compound 42, (R,E)-3-cyano-N-(1-(4-hydroxybutan-2-yl)-5-(2-oxo-1,3-oxazinan-3-yl)-1H-benzo[d]imidazol-2(3H)-ylidene)benzamide] was tested. Which pIC50 [1] did it give?
A: Its pIC50 is 6.00 to 7.00.

Q: What about the pIC50 [2] of the same compound?
A: Its pIC50 is no less than 7.00.

Q: Which results are given for `C[C@H](CCO)n1/c(=N/C(=O)c2cccc(C(F)(F)F)c2)[nH]c2cc(N3CCCOC3=O)ccc21` [Compound 43, (R,E)-N-(1-(4-hydroxybutan-2-yl)-5-(2-oxo-1,3-oxazinan-3-yl)-1H-benzo[d]imidazol-2(3H)-ylidene)-3-(trifluoromethyl)benzamide]?
A: pIC50 [1]: 6.00 to 7.00; pIC50 [2]: ≥ 7.00

Q: What does the source list for `C[C@H](CCO)n1/c(=N/C(=O)c2cccc(C(F)F)c2)[nH]c2cc(N3CCCOC3=O)ccc21` [Compound 44, (R,E)-3-(difluoromethyl)-N-(1-(4-hydroxybutan-2-yl)-5-(2-oxo-1,3-oxazinan-3-yl)-1H-benzo[d]imidazol-2(3H)-ylidene)benzamide]?
A: pIC50 [1]: 6.00 to 7.00; pIC50 [2]: ≥ 7.00

Q: How did the pIC50 [1] turn out when `O=C(/N=c1\[nH]c2cc(N3CCOCC3=O)ccc2n1C1CCCCC1)c1cccc(C(F)(F)F)c1` [Compound 45, (E)-N-(1-cyclohexyl-5-(3-oxomorpholino)-1H-benzo[d]imidazol-2(3H)-ylidene)-3-(trifluoromethyl)benzamide] was run?
A: The pIC50 was less than 6.00.

Q: And the pIC50 [2]?
A: Its pIC50 is 6.00 to 7.00.

Q: `O=C(/N=c1\[nH]c2cc(N3CCCNC3=O)ccc2n1CCCO)c1cccc(C(F)F)c1` [Compound 46, (E)-3-(difluoromethyl)-N-(1-(3-hydroxypropyl)-5-(2-oxotetrahydropyrimidin-1(2H)-yl)-1H-benzo[d]imidazol-2(3H)-ylidene)benzamide] was tested. Which pIC50 [1] did it give?
A: The pIC50 was 6.00 to 7.00.

Q: What about the pIC50 [2] of the same compound?
A: Its pIC50 is no less than 7.00.

Q: With `CC(=O)NCc1cccc(C(=O)/N=c2\[nH]c3cc(N4CCOCC4=O)ccc3n2CCCO)c1` [Compound 47, (E)-3-(acetamidomethyl)-N-(1-(3-hydroxypropyl)-5-(3-oxomorpholino)-1H-benzo[d]imidazol-2(3H)-ylidene)benzamide] as the compound, how does the pIC50 [1] read?
A: The pIC50 was 6.00 to 7.00.

Q: What about the pIC50 [2] of the same compound?
A: Its pIC50 is 6.00 to 7.00.

Q: With `N#Cc1cccc(C(=O)/N=c2\[nH]c3cc(N4CCOCC4=O)c(Br)cc3n2CCCO)c1` [Compound 48, (E)-N-(6-bromo-1-(3-hydroxypropyl)-5-(3-oxomorpholino)-1H-benzo[d]imidazol-2(3H)-ylidene)-3-cyanobenzamide] as the compound, how does the pIC50 [1] read?
A: The pIC50 was 6.00 to 7.00.

Q: What about the pIC50 [2] of the same compound?
A: The pIC50 was no less than 7.00.

Q: What does the source list for `O=C(/N=c1\[nH]c2cc(N3CCOCC3=O)c(Br)cc2n1CCCO)c1cccc(C(F)F)c1` [Compound 49, (E)-N-(6-bromo-1-(3-hydroxypropyl)-5-(3-oxomorpholino)-1H-benzo[d]imidazol-2(3H)-ylidene)-3-(difluoromethyl)benzamide]?
A: pIC50 [1]: 6.00 to 7.00; pIC50 [2]: ≥ 7.00
